Experimental data from patent US12729377B2, “RNAi agents and compositions for inhibiting expression of angiopoietin-like 3 (ANGPTL3), and methods of use” (Arrowhead Pharmaceuticals, Inc., priority 2017, dated 2026).
In the oligonucleotide strings, read from the 5' end, every base follows the letter of its sugar. An asterisk marks phosphorothioate; unmarked linkages are phosphodiester. Other units and linkages are bracketed, terminal groups are in braces. A string of capitals states the bases alone. {NAG37} = N-acetyl-galactosamine tridentate targeting ligand (NAG37); [invAb] = inverted abasic unit; m = 2'-O-methyl; f = 2'-fluoro

Columns and labels:
ANGPTL3 protein = test: Example 10: serum ANGPTL3 protein by ELISA in mice; format: in vivo; settings: 0.5 mg/kg single SC injection day 1, female C57bl/6 mice, n=3, ratio to D5W control
Protocol: (§1) To assess the in vivo activity of further ANGPTL3 RNAi agents that are designed to target position 304 on the ANGPTL3 gene, six- to eight-week-old female C57bl/6 mice were used. Pre-dose serum samples were taken at day −1 after a four hour fast. At day 1, each mouse was given a single subcutaneous administration of 200 μl containing 0.5 mg/kg (mpk) of an ANGPTL3 RNAi agent in D5W (dextrose in 5% water), or control (D5W) with no RNAi agent, according to the dosing groups recited in Table 47.
(§2) Each of the RNAi agents included a modified sequence and an N-acetyl-galactosamine-containing targeting ligand conjugated to the 5′ terminal end of the sense strand. (See Tables 3, 4, and 5 for modified sequences and targeting ligand structures). As noted above, each of the ANGPTL3 RNAi agents dosed in this study included nucleotide sequences designed to target the ANGPTL3 gene at position 304. The injections were performed between the skin and muscle (i.e. subcutaneous injections) into the loose skin over the neck and shoulder area. Three (3) mice in each group were tested (n=3). Serum was collected on days 8, 15, 22, 29, and for some groups on day 36 (i.e., Groups 1, 2, and 9-13 only). Mice were fasted for four hours prior to each collection. ANGPTL3 protein levels in serum were measured by ELISA assay (R&D Systems), according to the manufacturer's recommendations. Triglycerides, total cholesterol, high-density lipoprotein (HDL), and low-density lipoprotein (LDL) in serum were measured on a Cobas® Integra 400 (Roche Diagnostics), according to the manufacturer's recommendations.
(§3) The ANGPTL3 protein levels, triglyceride levels, total cholesterol levels, HDL levels, and LDL levels for each animal were normalized. For normalization, the level of ANGPTL3 protein, triglyceride, HDL, and total cholesterol, respectively, for each animal at a time point, was divided by the pre-treatment level of expression in that animal (in this case at day −1) to determine the ratio of expression “normalized to pre-treatment.” Expression at a specific time point was then normalized to the D5W control group by dividing the “normalized to pre-treatment” ratio for an individual animal by the mean “normalized to pretreatment” ratio of all mice in the D5W control group.

ANGPTL3 gene [1] = test: Example 10: serum triglycerides in mice; format: in vivo; settings: 0.5 mg/kg single SC injection day 1, female C57bl/6 mice, n=3, ratio to D5W control
Protocol: as §1, §2, §3

ANGPTL3 gene [2] = test: Example 10: serum total cholesterol in mice; format: in vivo; settings: 0.5 mg/kg single SC injection day 1, female C57bl/6 mice, n=3, ratio to D5W control
Protocol: as §1, §2, §3

ANGPTL3 gene [3] = test: Example 10: serum HDL in mice; format: in vivo; settings: 0.5 mg/kg single SC injection day 1, female C57bl/6 mice, n=3, ratio to D5W control
Protocol: as §1, §2, §3

ANGPTL3 gene [4] = test: Example 10: serum LDL in mice; format: in vivo, C57bl/6 mice; settings: 0.5 mg/kg sc
Protocol: as §1, §2, §3

For “AD05791: RNAi agent duplex: antisense AM07624-AS, sense AM07234-SS (antisense mU*fA*mCfUmGfAmUfCmAfAmAfUmAfUmGfUmUfGmA*fG*mC; sense {NAG37}*[invAb]*mGmCmUmCmAmAmCmAfUfAfUmUmUmGmAmUmCmAmGmUmA*[invAb])”, the “Average ANGPTL3 Protein Normalized to Pre-Treatment and Control” value (shortened to “Average ANGPTL3 Protein Normalized”) (ANGPTL3 protein; Day 8) was 0.145, the “Average ANGPTL3 Protein Normalized” value (ANGPTL3 protein; Day 15) was 0.170 and the “Average ANGPTL3 Protein Normalized” value (ANGPTL3 protein; Day 22) was 0.214. For the same substance, the “Average ANGPTL3 Protein Normalized” value (ANGPTL3 protein; Day 29) was 0.246, the “Average Triglycerides Normalized to Pre-Treatmen and Control” value (“Average Triglycerides Normalized” below) (ANGPTL3 gene [1]; Day 8) was 1.125 and the “Average Triglycerides Normalized” value (ANGPTL3 gene [1]; Day 15) was 0.930. The “Average Triglycerides Normalized” value (ANGPTL3 gene [1]; Day 22) was 1.631, the “Average Triglycerides Normalized” value (ANGPTL3 gene [1]; Day 29) was 0.854 and the “Average Total Cholesterol Normalized to Pre-Treatment and Control” value (shortened to “Average Total Cholesterol Normalized”) (ANGPTL3 gene [2]; Day 8) was 0.664. For the same substance, the “Average Total Cholesterol Normalized” value (ANGPTL3 gene [2]; Day 15) was 0.694, the “Average Total Cholesterol Normalized” value (ANGPTL3 gene [2]; Day 22) was 0.631 and the “Average Total Cholesterol Normalized” value (ANGPTL3 gene [2]; Day 29) was 0.677. The “Average HDL Normalized to Pre-Treatment and Control” value (from here on “Average HDL Normalized”) (ANGPTL3 gene [3]; Day 8) was 0.632, the “Average HDL Normalized” value (ANGPTL3 gene [3]; Day 15) was 0.674 and the “Average HDL Normalized” value (ANGPTL3 gene [3]; Day 22) was 0.563. For the same substance, the “Average HDL Normalized” value (ANGPTL3 gene [3]; Day 29) was 0.679, the “Avg LDL Normalized to Pre-Treatment and Control” value (shortened to “Avg LDL Normalized”) (ANGPTL3 gene [4]; Day 8) was 0.878 and the “Avg LDL Normalized” value (ANGPTL3 gene [4]; Day 15) was 0.744. For the same substance, the “Avg LDL Normalized” value (ANGPTL3 gene [4]; Day 22) was 0.848 and the “Avg LDL Normalized” value (ANGPTL3 gene [4]; Day 29) was 0.755.
